In the NIST ThermoML archive (doi:10.1016/j.jct.2019.03.022):
Numbers after ± are expanded uncertainties.

Conditions: Liquid, Frequency=5 MHz, Pulse-echo method

Cc1ccc(C)cc1 [1,4-dimethylbenzene]
Conditions	speed of sound [m/s]
305.93 K, 3690 kPa	1296.5 ± 0.79
305.97 K, 40270 kPa	1464.5 ± 0.81
305.98 K, 5250 kPa	1304.4 ± 0.79
305.98 K, 45030 kPa	1483.5 ± 0.81
305.98 K, 50870 kPa	1506 ± 0.82
305.99 K, 1000 kPa	1281.8 ± 0.79
305.99 K, 35160 kPa	1443.6 ± 0.81
306 K, 4900 kPa	1302.5 ± 0.79
306 K, 13840 kPa	1347.7 ± 0.79
306 K, 30490 kPa	1423.8 ± 0.8
306.02 K, 2050 kPa	1287.2 ± 0.79
306.03 K, 9400 kPa	1325.6 ± 0.79
306.05 K, 6960 kPa	1312.9 ± 0.79
306.06 K, 19900 kPa	1376.2 ± 0.8
306.07 K, 2050 kPa	1287.1 ± 0.79
306.07 K, 16500 kPa	1360.1 ± 0.8
306.07 K, 24630 kPa	1397.8 ± 0.8
306.1 K, 29650 kPa	1419.7 ± 0.8
306.14 K, 26930 kPa	1407.8 ± 0.8
306.18 K, 28370 kPa	1413.9 ± 0.8
323.47 K, 41260 kPa	1410.2 ± 0.79
323.47 K, 49810 kPa	1445.3 ± 0.81
323.47 K, 59650 kPa	1483.5 ± 0.81
323.48 K, 34540 kPa	1381.1 ± 0.81
323.48 K, 54770 kPa	1464.8 ± 0.8
323.48 K, 55430 kPa	1467.4 ± 0.81
323.49 K, 46870 kPa	1433.4 ± 0.8
323.51 K, 49380 kPa	1443.5 ± 0.8
323.51 K, 65910 kPa	1506.7 ± 0.82
323.52 K, 30290 kPa	1361.8 ± 0.81
323.53 K, 11470 kPa	1269.8 ± 0.78
323.54 K, 1060 kPa	1211.5 ± 0.78
323.54 K, 6060 kPa	1240.3 ± 0.78
323.54 K, 44230 kPa	1422.4 ± 0.8
323.54 K, 45010 kPa	1425.6 ± 0.83
323.55 K, 18570 kPa	1306.1 ± 0.78
323.56 K, 210 kPa	1206.4 ± 0.8
323.57 K, 490 kPa	1208.1 ± 0.78
323.57 K, 2600 kPa	1220.4 ± 0.78
323.57 K, 10070 kPa	1262.1 ± 0.78
323.57 K, 20900 kPa	1317.5 ± 0.78
323.57 K, 39580 kPa	1402.7 ± 0.79
323.57 K, 44830 kPa	1424.7 ± 0.8
323.58 K, 5070 kPa	1234.5 ± 0.78
323.58 K, 6090 kPa	1240.3 ± 0.78
323.58 K, 11110 kPa	1267.7 ± 0.78
323.58 K, 34830 kPa	1382 ± 0.81
323.59 K, 7490 kPa	1248 ± 0.78
323.59 K, 17890 kPa	1302.5 ± 0.77
323.59 K, 25130 kPa	1337.7 ± 0.78
323.59 K, 30210 kPa	1361.3 ± 0.81
323.6 K, 15130 kPa	1288.6 ± 0.78
335.95 K, 55000 kPa	1427.5 ± 0.79
335.95 K, 65380 kPa	1467.9 ± 0.8
335.96 K, 61040 kPa	1451.3 ± 0.8
335.97 K, 50590 kPa	1409.6 ± 0.79
335.98 K, 1230 kPa	1164 ± 0.78
335.98 K, 2630 kPa	1172.6 ± 0.77
335.98 K, 5600 kPa	1190.4 ± 0.77
335.98 K, 45230 kPa	1387.1 ± 0.78
335.99 K, 280 kPa	1158 ± 0.77
335.99 K, 570 kPa	1159.8 ± 0.77
335.99 K, 10300 kPa	1217.5 ± 0.77
335.99 K, 20370 kPa	1271.4 ± 0.76
336 K, 10270 kPa	1217.2 ± 0.77
336 K, 24830 kPa	1293.8 ± 0.77
336 K, 30890 kPa	1323 ± 0.75
336 K, 34840 kPa	1341.2 ± 0.75
336.01 K, 14980 kPa	1243.1 ± 0.77
336.01 K, 20750 kPa	1273.3 ± 0.77
336.02 K, 40670 kPa	1367.2 ± 0.78
336.03 K, 41380 kPa	1370.3 ± 0.76
336.05 K, 41270 kPa	1369.8 ± 0.76
336.06 K, 31080 kPa	1323.6 ± 0.76
348.25 K, 40 kPa	1108.8 ± 0.8
348.27 K, 2120 kPa	1122.5 ± 0.8
348.28 K, 4090 kPa	1135.2 ± 0.79
348.29 K, 2590 kPa	1125.5 ± 0.8
348.3 K, 2110 kPa	1122.3 ± 0.8
348.32 K, 1270 kPa	1116.8 ± 0.8
348.32 K, 8600 kPa	1162.9 ± 0.8
348.32 K, 8900 kPa	1164.7 ± 0.8
348.35 K, 10880 kPa	1176.3 ± 0.79
348.36 K, 15220 kPa	1201.1 ± 0.79
348.36 K, 20050 kPa	1227.6 ± 0.79
348.37 K, 14620 kPa	1197.7 ± 0.79
348.37 K, 60580 kPa	1413.4 ± 0.8
348.39 K, 59820 kPa	1410.3 ± 0.81
348.39 K, 64180 kPa	1427.6 ± 0.81
348.4 K, 64670 kPa	1429.6 ± 0.81
348.41 K, 59890 kPa	1410.6 ± 0.81
348.42 K, 45170 kPa	1348.7 ± 0.79
348.42 K, 49930 kPa	1369.4 ± 0.8
348.42 K, 54750 kPa	1389.6 ± 0.8
348.43 K, 29340 kPa	1275 ± 0.78
348.43 K, 33900 kPa	1297.2 ± 0.79
348.43 K, 39830 kPa	1324.8 ± 0.79
348.45 K, 24930 kPa	1252.9 ± 0.78
355.89 K, 12280 kPa	1158.2 ± 0.78
